Where two headings read alike, the source gives them in different places.

27 compounds from article PMC7074166, “Screening for Small Molecule Modulators of Trypanosoma brucei Hsp70 Chaperone Activity Based upon Alcyonarian Coral-Derived Natural Products” (Marine Drugs, 2020) can be followed below.

The experiment relates to bloodstream form T. b. brucei parasites. The experiment can be described thus: Resazurin-based anti-trypanosomal assay on bloodstream form T. b. brucei parasites. Type of experiment: cell-based, Trypanosoma brucei brucei. As for the experimental part: Bloodstream form T. b. brucei Lister 927 variant 221 strain parasites were cultured in filter sterilized complete Iscoves Modified Dulbeccos Media (IMDM) based HM1-9 medium (IMDM base powder, […] sodium bicarbonate, 1 mM hypoxanthine, 1 mM sodium pyruvate, 0.16 mM thymidine, 0.05 mM bathocuprone sulphate acid, 10% (v/v) heat inactivated foetal bovine serum, 1.5 mM L-cysteine, 0.2 mM β-mercaptoethanol, pH 7.5) in a humidified chamber at 37 °C with an atmosphere of 5% CO2. Parasite growth was monitored using a Neubauer haemocytometer to count the cell number, after which cells were diluted, according to their density, in the described pre-warmed media.
All compounds of interest were resuspended to stocks of 30 mM in DMSO and stored at −80 °C prior to use in in vitro experiments. For assessment of anti-trypanosomal activity, compounds were added to in vitro cultures of bloodstream form T. b. brucei parasites (1 × 10^5 cells/mL) in 96-well plates at a fixed concentration of 20 μM. After an incubation period of 48 h, the number of parasites surviving drug exposure were determined using a resazurin-based cytotoxicity assay. Resazurin is an oxidation–reduction sensitive dye that is reduced by living cells to resorufin. Resorufin is a fluorophore (Excitation560/Emission590) and thus was quantified in a multi-well fluorescence plate reader. Results are expressed as % parasite viability—the resorufin fluorescence in small molecule-treated wells relative to untreated controls. Assessment of each small molecule was conducted in duplicate, with error bars representing standard deviation (SD). […] The compounds were added to in vitro cultures of bloodstream form T. b. brucei parasites (1 × 10^5 cells/mL) in 96-well plates in a 3-fold dilution series with 100 μM as the highest concentration. After an incubation period of 48 h, the number of parasites surviving drug exposure were determined as previously mentioned. The % parasite viability was determined as previously mentioned. The IC50 (the concentration of compound required to decrease cell viability of T. b. brucei parasites by 50% compared to those grown in the absence of the compound) values for each of the compounds were determined from a dose–response curve by non-linear regression generated using GraphPad Prism® (v. 7.0; San Diego, CA, USA) software. For comparative purposes, pentamidine at a fixed concentration of 1 μM was employed as a drug standard.

[1] abbreviates: Trypanosoma brucei, Table 1, T. b. brucei parasites cultured in vitro, 48 h, dose-response, read-out: IC50/μM.
[2] abbreviates: Trypanosoma brucei, Table S1, 48 select compounds, T. b. brucei, 48 h, read-out: IC50/.

Consider “6-chloro-7-((2E,6E)-3,7,11-trimethyldodeca-2,6,10-trien-1-yl)-9H-purine [Compound 18]”, for which the IC50 by setting is: (Table 1, T. b. brucei parasites cultured in vitro, 48 h, dose-response, read-out: IC50/μM) 9.3 µM; (Table S1, 48 select compounds, T. b. brucei, 48 h, read-out: IC50/) 9.28 µM.

Consider `CC(C)=CCC/C(C)=C/CCC(C)=CCn1cnc(N)c2ncnc1-2` [Compound 6, 3-((6E)-3,7,11-Trimethyldodeca-2,6,10-trien-1-yl)-3H-purin-6-amine], for which the IC50 under setting [1] worked out at 12.7 µM and the IC50 under setting [2] was 12.7 µM. Regarding `CC(C)=CCC/C(C)=C/CCC(C)=CCn1cnc2c(N)ncnc21` [Compound 7, 9-((6E)-3,7,11-trimethyldodeca-2,6,10-trien-1-yl)-9H-purin-6-amine], the IC50 under setting [1] is 47.7 µM and the IC50 under setting [2] was 47.7 µM. As to `CC(C)=CCC/C(C)=C/CC/C(C)=C/CC/C(C)=C/Cn1cnc2c(N)ncnc21` [Compound 8, 9-((2E,6E,10E)-3,7,11,15-Tetramethylhexadeca-2,6,10,14-tetraen-1-yl)-9H-purin-6-amine], the IC50 reads like this: under setting [1], 13.4 µM; under setting [2], 13.4 µM. Turning to `CC(C)=CCC/C(C)=C/Cn1cnc2c(N(C)C)ncnc21` [Compound 9, (E)-9-(3,7-Dimethylocta-2,6-dien-1-yl)-N,N-dimethyl-9H-purin-6-amine], the IC50 runs as follows: under setting [1], 28.4 µM; under setting [2], 28.4 µM. Turning to `CC(C)=CCC/C(C)=C/CCC(C)=CCn1cnc2c(N(C)C)ncnc21` [Compound 11, N,N-Dimethyl-9-((6E)-3,7,11-trimethyldodeca-2,6,10-trien-1-yl)-9H-purin-6-amine], the IC50 stood at 9.5 µM under setting [1] and 9.48 µM under setting [2]. As for `CC(C)=CCC/C(C)=C/CCC(C)=CCn1cnc(N(C)C)c2ncnc1-2` [Compound 12, N,N-dimethyl-3-((6E)-3,7,11-trimethyldodeca-2,6,10-trien-1-yl)-3H-purin-6-amine], the IC50 under setting [1] amounted to 14 µM.

In the case of `CC(C)=CCC/C(C)=C/CC/C(C)=C/CC/C(C)=C\Cn1cnc2c(N(C)C)ncnc21` [Compound 13, N,N-Dimethyl-9-((2Z,6E,10E)-3,7,11,15-tetramethylhexadeca-2,6,10,14-tetraen-1-yl)-9H-purin-6-amine], the IC50 came to 8.7 µM under setting [1] and 8.69 µM under setting [2]. Regarding `CC(C)=CCC/C(C)=C/CC/C(C)=C/CC/C(C)=C/Cn1cnc2c(N(C)C)ncnc21` [Compound 14, N,N-dimethyl-9-((2E,6E,10E)-3,7,11,15-tetramethylhexadeca-2,6,10,14-tetraen-1-yl)-9H-purin-6-amine], the IC50 runs as follows: under setting [1], 9.2 µM; under setting [2], 9.22 µM. For `CC(C)=CCC/C(C)=C/Cn1cnc2c(Cl)ncnc21` [Compound 15, (E)-6-Chloro-9-(3,7-dimethylocta-2,6-dien-1-yl)-9H-purine] the same measures were 12.2 µM and 12.2 µM.

Regarding `CC(C)=CCC/C(C)=C/Cn1cnc2ncnc(Cl)c21` [Compound 16, (E)-6-chloro-7-(3,7-dimethylocta-2,6-dien-1-yl)-7H-purine], the IC50 was found to be 11 µM under setting [1] and 11 µM under setting [2]. As for `CC(C)=CCC/C(C)=C/CCC(C)=CCn1cnc2c(Cl)ncnc21` [Compound 17, 6-Chloro-9-((6E)-3,7,11-trimethyldodeca-2,6,10-trien-1-yl)-9H-purine], the IC50 is 12.9 µM under setting [1] and 12.9 µM under setting [2]. `CC(C)=CCC/C(C)=C/CC/C(C)=C/CC/C(C)=C/Cn1cnc2c(Cl)ncnc21` [Compound 19, 6-Chloro-9-((2E,6E,10E)-3,7,11,15-tetramethylhexadeca-2,6,10,14-tetraen-1-yl)-9H-purine]: the IC50 by setting is: under setting [1], 6.8 µM; under setting [2], 6.79 µM. For the compound `CC(C)=CCC/C(C)=C/CC/C(C)=C/CC/C(C)=C/Cn1cnc2ncnc(Cl)c21` [Compound 20, 6-chloro-7-((2E,6E,10E)-3,7,11,15-tetramethylhexadeca-2,6,10,14-tetraen-1-yl)-7H-purine], the IC50 by setting is: under setting [1], 11 µM; under setting [2], 11 µM.

With `CC(C)=CCC/C(C)=C/CC/C(C)=C/CC/C(C)=C\Cn1cnc2ncnc(Cl)c21` [Compound 21, 6-chloro-7-((2Z,6E,10E)-3,7,11,15-tetramethylhexadeca-2,6,10,14-tetraen-1-yl)-7H-purine], the IC50 came out at 19.1 µM under setting [1] and 19.1 µM under setting [2]. For `CC(C)=CCC/C(C)=C/Cn1cnc2c1c(=O)[nH]c(=O)n2C` [Compound 29, (E)-7-(3,7-Dimethylocta-2,6-dien-1-yl)-3-methyl-3,7-dihydro-1H-purine-2,6-dione], the IC50 runs as follows: under setting [1], 18.9 µM; under setting [2], 18.9 µM. Consider `CC(C)=CCC/C(C)=C/CC/C(C)=C\Cn1cnc2c1c(=O)[nH]c(=O)n2C` [Compound 30, 3-Methyl-7-((2Z,6E)-3,7,11-trimethyldodeca-2,6,10-trien-1-yl)-3,7-dihydro-1H-purine-2,6-dione], for which the IC50 is, setting by setting: under setting [1], 4.6 µM; under setting [2], 4.62 µM.

Consider `CC(C)=CCC/C(C)=C/CC/C(C)=C/CC/C(C)=C\Cn1cnc2c1c(=O)[nH]c(=O)n2C` [Compound 32, 3-Methyl-7-((2Z,6E,10E)-3,7,11,15-tetramethylhexadeca-2,6,10,14-tetraen-1-yl)-3,7-dihydro-1H-purine-2,6-dione], for which the IC50 under setting [1] was 5.9 µM. In the case of `CC(C)=CCC/C(C)=C/CC/C(C)=C/CC/C(C)=C/Cn1cnc2c1c(=O)[nH]c(=O)n2C` [Compound 33, 3-methyl-7-((2E,6E,10E)-3,7,11,15-tetramethylhexadeca-2,6,10,14-tetraen-1-yl)-3,7-dihydro-1H-purine-2,6-dione], the IC50 by setting is: under setting [1], 10.2 µM; under setting [2], 10.2 µM. Consider `CC(C)=CCC/C(C)=C/CC/C(C)=C/CC/C(C)=C\Cn1cnc2c1c(=O)n(C)c(=O)n2C` [Compound 36, 1,3-Dimethyl-7-((2Z,6E,10E)-3,7,11,15-tetramethylhexadeca-2,6,10,14-tetraen-1-yl)-3,7-dihydro-1H-purine-2,6-dione], for which the IC50 is, setting by setting: under setting [1], 5.2 µM; under setting [2], 5.17 µM. For `CC(C)=CCC/C(C)=C/CC/C(C)=C/CC/C(C)=C/Cn1cnc2c1c(=O)n(C)c(=O)n2C` [Compound 37, 1,3-dimethyl-7-((2E,6E,10E)-3,7,11,15-tetramethylhexadeca-2,6,10,14-tetraen-1-yl)-3,7-dihydro-1H-purine-2,6-dione], under setting [1], the IC50 came out at 21.6 µM.

On to `CC(C)=CCC/C(C)=C/CC12NC(=O)N=C1N(C)C(=O)N(C)C2=O` (stereo not shown) [Compound 42, (E)-5-(3,7-Dimethylocta-2,6-dien-1-yl)-1,3-dimethyl-5,7-dihydro-1H-purine-2,6,8(3H)-trione], for which the IC50 reads like this: under setting [1], 10.9 µM; under setting [2], 10.9 µM. On to `CC(C)=CCC/C(C)=C/CCC(C)=CCn1c(=O)[nH]c2c(=O)n(C)c(=O)n(C)c21` [Compound 44, 1,3-dimethyl-9-((6E)-3,7,11-trimethyldodeca-2,6,10-trien-1-yl)-7,9-dihydro-1H-purine-2,6,8(3H)-trione], for which the IC50 was determined as 16.6 µM under setting [1] and 16.6 µM under setting [2]. As to `CC(C)=CCC/C(C)=C/CCC(C)=CCn1cc2c(=O)ncn(CC=C(C)CC/C=C(\C)CCC=C(C)C)c2n1` [Compound 48, 2,7-bis((6E)-3,7,11-trimethyldodeca-2,6,10-trien-1-yl)-2,7-dihydro-4H-pyrazolo[3,4-d]pyrimidin-4-one], the IC50 is below 7 µM (Trypanosoma brucei, T. b. brucei parasites, stated as bound, read-out: IC50 values); 5.5 µM under setting [1]; 5.47 µM under setting [2]. With `CC(C)=CCC/C(C)=C/CC/C(C)=C/Cn1cnc2nncc-2c1O` [Compound 49, 5-((2E,6E)-3,7,11-trimethyldodeca-2,6,10-trien-1-yl)-5H-pyrazolo[3,4-d]pyrimidin-4-ol], the IC50 came to 16.7 µM under setting [1] and 16.7 µM under setting [2]. Regarding `CC(C)=CCC/C(C)=C/CC/C(C)=C/CC/C(C)=C/Cn1cnc2c(cnn2C/C=C(\C)CC/C=C(\C)CC/C=C(\C)CCC=C(C)C)c1=O` [Compound 50, 1,5-Bis((2E,6E,10E)-3,7,11,15-tetramethylhexadeca-2,6,10,14-tetraen-1-yl)-1,5-dihydro-4H-pyrazolo[3,4-d]pyrimidin-4-one], the IC50 turned out to be 2.1 µM under setting [1] and 2.07 µM under setting [2]. For the compound `CC(C)=CCC/C(C)=C/CCC(C)=CCn1ccc(=O)[nH]c1=O` [Compound 55, 1-((6E)-3,7,11-Trimethyldodeca-2,6,10-trien-1-yl)pyrimidine-2,4(1H,3H)-dione], the IC50 by setting is: under setting [1], 16.5 µM; under setting [2], 16.5 µM.
